Patent US10604509B2, “Nrf2 regulators” (GlaxoSmithKline Intellectual Property Development Limited, priority 2015, dated 2020)
pEC50: −log10 of the molar value. Where a name gives a salt, the structure may show the parent alone. Read-outs that look alike come from different tables or passages of the source.

Test system: NQO1 specific enzyme activity in BEAS-2B cells
Test: BEAS-2B NQO1 MTT assay
Assay type: cell-based
Details: BEAS-2B cells, 48 hours with compound, MTT readout, read-out: EC50 of NQO1 specific activity induction
How it was run: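 NQO1 specific activity, an NRF2 activation marker, read kinetically as absorbance change at 570 nm for 30 min after MTT cocktail addition to crude lysates of BEAS-2B cells exposed 48 h to compound. Three-parameter fit of Delta OD/min against log concentration gives EC50; lysate portion used for Cell Titer Glo.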

Compound | pEC50 (Homo sapiens, BEAS-2B, 48 h) | pEC50
COc1ccc2c(c1)CN(Cc1cc([C@@H](CC(=O)O)c3ccc4c(nnn4C)c3C)ccc1C)CC(C)(C)O2 [Example 166, (R)-3-(1,4-Dimethyl-1H-benzo[d][1,2,3]triazol-5-yl)-3-(3-((7-methoxy-2,2-dimethyl-2,3-dihydrobenzo[f][1,4]oxazepin-4(5H)-yl)methyl)-4-methylphenyl)propanoic acid] | 7.00 to 8.00 | 
CC[C@@H]1CN(Cc2cc([C@@H](c3ccc4c(nnn4CC)c3C)C(C)(C)C(=O)O)ccc2C)Cc2cnccc2O1 [Example 188, (S)-3-(3-(((R)-2-Ethyl-2,3-dihydropyrido[3,4-f][1,4]oxazepin-4(5H)-yl)methyl)-4-methylphenyl)-3-(1-ethyl-4-methyl-1H-benzo[d][1,2,3]triazol-5-yl)-2,2-dimethylpropanoic Acid] | > 9.00 | 
CCC1CN(Cc2cc([C@H](c3ccc4c(nnn4C)c3C)C(C)C(=O)O)ccc2C)Cc2ccccc2O1 (stereo partly drawn) [Example 102, (3R)-3-(1,4-dimethyl-1H-benzo[d][1,2,3]triazol-5-yl)-3-(3-((2-ethyl-2,3-dihydrobenzo[f][1,4]oxazepin-4(5H)-yl)methyl)-4-methylphenyl)-2-methylpropanoic Acid] | > 9.00 | 
Cc1ccc(C(CC(=O)O)c2ccc3c(nnn3C)c2C)cc1Cc1nnnn1CC1CCCCC1 (centres unmarked) [Example 134, 3-(3-((1-(Cyclohexylmethyl)-1H-tetrazol-5-yl)methyl)-4-methylphenyl)-3-(1,4-dimethyl-1H-benzo[d][1,2,3]triazol-5-yl)propanoic acid, hydrochloride salt] | 6.00 to 7.00 | 
Cc1ccc(C(c2ccc3c(nnn3C)c2C)C(C)(C)C(=O)O)cc1Cn1ccnc1CN1CCOCC1 (centres unmarked) [Example 142, 3-(1,4-Dimethyl-1H-benzo[d][1,2,3]triazol-5-yl)-2,2-dimethyl-3-(4-methyl-3-((2-(morpholinomethyl)-1H-imidazol-1-yl)methyl)phenyl) propanoic acid, trifluoroacetic acid salt] | 6.00 to 7.00 | 
CCC1CCN(Cc2nccn2Cc2cc([C@@H](c3ccc4c(nnn4C)c3C)C(C)(C)C(=O)O)ccc2C)CC1 [Example 122, (S)-3-(1,4-Dimethyl-1H-benzo[d][1,2,3]triazol-5-yl)-3-(3-((2-((4-ethylpiperidin-1-yl)methyl)-1H-imidazol-1-yl)methyl)-4-methylphenyl)-2,2-dimethylpropanoate, Sodium salt] | 7.00 to 8.00 | 
Cc1ccc(C(CC(=O)O)c2ccc3c(nnn3C)c2C)cc1CN1Cc2ccccc2O[C@H](C)C1 (stereo partly drawn) [Example 94, 3-(1,4-Dimethyl-1H-benzo[d][1,2,3]triazol-5-yl)-3-(4-methyl-3-(((R)-2-methyl-2,3-dihydrobenzo[f][1,4]oxazepin-4(5H)-yl)methyl)phenyl)propanoic Acid, Formic Acid Salt] | 8.00 to 9.00 | 
CCn1cc(CCC(c2ccc(C)c(CN3Cc4ncccc4OC(C)(C)C3)c2)C(C)(C)C(=O)O)nn1 (centres unmarked) [Example 221, 3-(3-((2,2-Dimethyl-2,3-dihydropyrido[2,3-f][1,4]oxazepin-4(5H)-yl)methyl)-4-methylphenyl)-5-(1-ethyl-1H-1,2,3-triazol-4-yl)-2,2-dimethylpentanoic Acid] | 7.00 to 8.00 | 
Cc1c(C(CC(=O)O)c2ccc(F)c(CN3Cc4ncccc4OC(C)(C)C3)c2)ccc2c1nnn2C (single isomer, unassigned; isomer 1) [Example 261] | 6.00 to 7.00 | 
Cc1ccc(C(CC(=O)O)c2ccc3c(nnn3C)c2C)cc1CN1CCCC1c1nnc(C(C)C)[nH]1 (centres unmarked) [Example 10, Ammonium 3-(1,4-dimethyl-1H-benzo[d][1,2,3]triazol-5-yl)-3-(3-((2-(5-isopropyl-4H-1,2,4-triazol-3-yl)pyrrolidin-1-yl)methyl)-4-methylphenyl)propanoate] | 5.00 to 6.00 | 
CCC1CCN(Cc2nccn2Cc2cc(C(CCc3cn(CC)nn3)C(C)C(=O)O)ccc2C)CC1 (single isomer, unassigned; isomer 1) [Example 225, 5-(1-Ethyl-1H-1,2,3-triazol-4-yl)-3-(3-((2-((4-ethylpiperidin-1-yl)methyl)-1H-imidazol-1-yl)methyl)-4-methylphenyl)-2-methylpentanoic Acid, Trifluoroacetic Acid Salt (Compound 9, Isomer 1,Scheme A)] | 7.00 to 8.00 | 
Cc1ccc([C@H](CC(=O)O)c2ccc3c(nnn3C)c2C)cc1CN1Cc2ccc(F)cc2OC(C)(C)C1 [Example 63, (S)-3-(1,4-Dimethyl-1H-benzo[d][1,2,3]triazol-5-yl)-3-(3-((8-fluoro-2,2-dimethyl-2,3-dihydrobenzo[f][1,4]oxazepin-4(5H)-yl)methyl)-4-methylphenyl)propanoic acid] | 7.00 to 8.00 | 
Cc1ccc([C@@H](c2ccc3c(nnn3C)c2C)C(C)(C)C(=O)O)cc1CN1Cc2ncccc2OC(C)(C)C1 [Example 30, formic acid salt] | 8.00 to 9.00 | 
CC[C@@H]1CN(Cc2cc(C(CCc3cn(CC)nn3)C(C)C(=O)O)ccc2C)Cc2ccccc2O1 (single isomer, unassigned; isomer 3) [Example 120] |  | 8.00 to 9.00
CC[C@@H]1CN(Cc2cc([C@H](c3ccc4c(nnn4CC)c3C)[C@H](C)C(=O)O)ccc2C)Cc2ccccc2O1 [Example 199, (2S,3R)-3-(3-(((R)-2-Ethyl-2,3-dihydrobenzo[f][1,4]oxazepin-4(5H)-yl)methyl)-4-methylphenyl)-3-(1-ethyl-4-methyl-1H-benzo[d][1,2,3]triazol-5-yl)-2-methylpropanoic acid] |  | 7.00 to 8.00
CCn1nnc2c(C)c([C@@H](c3ccc(C)c(CN4Cc5ccccc5OC(C)(C)C4)c3)[C@H](C)C(=O)O)ccc21 [Example 200, (2S,3R)-3-(3-((2,2-Dimethyl-2,3-dihydrobenzo[f][1,4]oxazepin-4(5H)-yl)methyl)-4-methylphenyl)-3-(1-ethyl-4-methyl-1H-benzo[d][1,2,3]triazol-5-yl)-2-methylpropanoic Acid, 2 Trifluoroacetic Acid Salt] | 7.00 to 8.00 | 
(S)-3-(1,4-Dimethyl-1H- benzo[d][1,2,3]triazol-5- yl)-3-(3-(((R)-2-ethyl-9- fluoro-2,3- dihydrobenzo[f][1,4]oxa- zepin-4(5H)-yl)methyl)-4- methylphenyl)-2,2- dimethylpropanoic acid, trifluoroacetic acid salt [Example 25] |  | > 9.00
Cc1ccc(C(c2ccc3c(nnn3C)c2C)C(C)(C)C(=O)O)cc1Cn1ccnc1CN1CCCC1 (centres unmarked) [Example 124, 3-(1,4-Dimethyl-1H-benzo[d][1,2,3]triazol-5-yl)-2,2-dimethyl-3-(4-methyl-3-((2-(pyrrolidin-1-ylmethyl)-1H-imidazol-1-yl)methyl)phenyl)propanoate, Sodium salt] | 7.00 to 8.00 | 
CC[C@@H]1CN(Cc2cc(C(CCc3cn(CC)nn3)C(C)(C)C(=O)O)ccc2C)Cc2cccnc2O1 (stereo partly drawn) [Example 217, 5-(1-Ethyl-1H-1,2,3-triazol-4-yl)-3-(3-(((R)-2-ethyl-2,3-dihydropyrido[3,2-f][1,4]oxazepin-4(5H)-yl)methyl)-4-methylphenyl)-2,2-dimethylpentanoic Acid] | 7.00 to 8.00 | 
Cc1ccc([C@@H](c2ccc3c(nnn3C)c2C)[C@@H](C)C(=O)O)cc1CN1Cc2cnccc2OC(C)(C)C1 [Example 203, (2R,3S)-3-(1,4-Dimethyl-1H-benzo[d][1,2,3]triazol-5-yl)-3-(3-((2,2-dimethyl-2,3-dihydropyrido[3,4-f][1,4]oxazepin-4(5H)-yl)methyl)-4-methylphenyl)-2-methylpropanoic Acid, 0.2 Formic Acid Salt] | 7.00 to 8.00 | 
CC[C@@H]1CN(Cc2cc(C(CC(=O)O)c3ccc4c(c3)nnn4C)ccc2C)Cc2ccccc2O1 (stereo partly drawn) [Example 91, 3-(3-(((R)-2-Ethyl-2,3-dihydrobenzo[f][1,4]oxazepin-4(5H)-yl)methyl)-4-methylphenyl)-3-(1-methyl-1H-benzo[d][1,2,3]triazol-5-yl)propanoic acid] | 6.00 to 7.00 | 
CC[C@@H]1CN(Cc2cc([C@H](c3ccc4c(nnn4C)c3C)C(C)C(=O)O)ccc2C)Cc2cc(F)ccc2O1 (stereo partly drawn) [Example 42, (3R)-3-(1,4-Dimethyl-1H-benzo[d][1,2,3]triazol-5-yl)-3-(3-(((R)-2-ethyl-7-fluoro-2,3-dihydrobenzo[f][1,4]oxazepin-4(5H)-yl)methyl)-4-methylphenyl)-2-methylpropanoic Acid, Trifluoroacetic Acid Salt] | 6.00 to 7.00 | 
CCC1CN(Cc2cc(C(CC(=O)O)c3ccc4c(nnn4C)c3C)ccc2C)Cc2c(Cl)cccc2O1 (centres unmarked) [Example 88, 3-(3-((6-Chloro-2-ethyl-2,3-dihydrobenzo[f][1,4]oxazepin-4(5H)-yl)methyl)-4-methylphenyl)-3-(1,4-dimethyl-1H-benzo[d][1,2,3]triazol-5-yl)propanoic acid] | 6.00 to 7.00 | 
CC[C@@H]1CN(Cc2cc(C(c3ccc(F)cc3C)C(C)(C)C(=O)O)ccc2C)Cc2ccccc2O1 (stereo partly drawn) [Example 115, 3-(3-(((R)-2-ethyl-2,3-dihydrobenzo[f][1,4]oxazepin-4(5H)-yl)methyl)-4-methylphenyl)-3-(4-fluoro-2-methylphenyl)-2,2-dimethylpropanoic Acid, Formic Acid Salt] | 5.00 to 6.00 | 
Cc1ccc(C(CC(=O)O)c2ccc3c(nnn3C)c2C)cc1CN1Cc2ccc(Br)cc2O[C@@H](C)C1 (stereo partly drawn) [Example 93, 3-(3-(((S)-8-bromo-2-methyl-2,3-dihydrobenzo[f][1,4]oxazepin-4(5H)-yl)methyl)-4-methylphenyl)-3-(1,4-dimethyl-1H-benzo[d][1,2,3]triazol-5-yl)propanoic Acid, Formic Acid Salt] | 8.00 to 9.00 | 
CCn1nnc2c(Cl)c([C@@H](CC(=O)O)c3ccc(C)c(CN4Cc5ccccc5OC(C)(C)C4)c3)ccc21 [Example 54, (S)-3-(4-Chloro-1-ethyl-1H-benzo[d][1,2,3]triazol-5-yl)-3-(3-((2,2-dimethyl-2,3-dihydrobenzo[f][1,4]oxazepin-4(5H)-yl)methyl)-4-methylphenyl)propanoic acid, hydrochloride] | 7.00 to 8.00 | 
